Experimental data as given in patent US20060247260A1, “Bis (hetero) aryl carboxamide derivatives for use as PG12 antagonists” (BAYER HEALTHCARE AG, priority 2003, published 2006).

Tests used:
PGI2 receptor = target: T1, PGI2 receptor (Homo sapiens, UniProt P43119); assay: PGI2 receptor binding/cAMP in HEL cells (in vitro activity grade); conditions: compounds of purity about 40 to 90%
T1 construct: host or cells: HEL 92.1.7 human erythroleukemia cells (whole cells)
Procedure: [Measurement of the [^3H]-Iloprost Binding to HEL Cells] (Assay 1) A human erythloleukemia cell line, HEL 92.1.7, was purchased from American Type Culture Correction and maintained in RPMI-1640 medium (Gibco BRL) supplemented with 10% fetal calf serum (FCS), 2 mM glutamine, 4.5 g/L glucose, 10 mM Hepes, 1 mM sodium pyruvate, 100 U/ml penicillin, and 100 μg/ml streptomycin in a humidified 5% CO2 atmosphere at 37° C. Cells were collected with centrifugation and washed with binding assay buffer (BAB: 50 mM Tris-HCl, 5 mM MgCl2 (pH 7.5)). Cells were suspended at the density of 6.25×10^6 cells/ml in BAB, and one million cells in 160 μl aliquot of cell suspension were put in a well of 96 well plate (Falcon). Then, 20 μl of compound solution, 100 μM of iloprost (for non-specific binding), or buffer alone (total binding), diluted with 1% DMSO in BAB was added. Finally, another 20 μl containing [^3H]-iloprost (0.02 μCi, 0.5-1 pmol) in BAB was added and incubated at room temperature for 30 min with a gentle shaking. Cell suspension was then transferred to a well of MultiScreen plate with GF/C glass filters (Millipore) to harvest cells. Cells were washed twice with 200 μl of ice-cold BAB and the plate was kept at 55° C. for 30 min to dry filters. The filter in the well was punched out to a counting tube and 2 ml of Ultima Gold XR Packard) was added. [^3H]-radio activity in the filter was measured by a liquid scintillation counter (Beckman, USA). [Iloprost-Induced cAMP Production Assay in HEL Cells] (Assay 2) HEL cells were collected with centrifugation and washed with cAMP assay buffer (CAB: Hank's balanced salt solution, 17 mM Hepes, 0.1% bovine serum albumin, 1 mM IBMX, 0.4% DMSO, and 1 mM L-ascorbic acid sodium salt (pH 7.4)). Cells were suspended at the density of 2.5×10^5 cells/ml in CAB, and twenty thousand cells in 80 μl aliquot of cell suspension were put in a well of 96 well plate (Falcon). Then, 10 μl of compound solution diluted with 1% DMSO in CAB or buffer alone was added. The plate was incubated at 37° C. for 30 min. Then, another 10 μl containing 100 nM iloprost in CAB or buffer alone was added and further incubated at 37° C. for 30 min. cAMP content in the well was measured by, a cAMP ELISA kit (Applied Biosystems, USA). The data corresponds to the compounds as yielded by solid phase synthesis and thus to levels of purity of about 40 to 90%. For practical reasons, the compounds are grouped in three classes of activity as follows: In vitro activity grade=A≦0.1 μM<B≦1 μM<C

T1 sequence (P43119 whole entry): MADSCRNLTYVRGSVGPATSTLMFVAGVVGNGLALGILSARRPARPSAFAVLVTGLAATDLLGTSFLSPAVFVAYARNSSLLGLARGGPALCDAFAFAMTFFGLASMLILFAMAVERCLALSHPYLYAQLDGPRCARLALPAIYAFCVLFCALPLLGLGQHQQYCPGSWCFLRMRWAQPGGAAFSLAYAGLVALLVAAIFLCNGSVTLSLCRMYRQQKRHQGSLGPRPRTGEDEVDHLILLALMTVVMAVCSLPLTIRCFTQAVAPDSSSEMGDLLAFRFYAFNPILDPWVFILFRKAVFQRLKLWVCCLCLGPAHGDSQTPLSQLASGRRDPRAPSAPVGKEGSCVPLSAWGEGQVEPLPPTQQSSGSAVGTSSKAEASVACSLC

## O=C(NC(Cc1ccccc1)C(=O)O)c1ccc(-c2ccc(OCc3ccccc3)c(F)c2)cc1 (centres unmarked) [Example 7-1, 2-[(4′-Benzyloxy-3′-fluorobiphenyl-4-carbonyl)amino]-3-phenylpropionic acid]
PGI2 receptor
  In vitro activity grade: A (A≦0.1 μM)
other
  melting point: 215 °C
